Reference: patent publication US20260217732A1, “WRN INHIBITOR” (SUZHOU PUHE BIOPHARMA CO., LTD., priority 2022, published 2026)

Key:
in vivo = settings: female, CD1, mouse
Protocol: (§1) Mouse Pharmacokinetic Evaluation Experiment
(§2) CD1 female mice were used as test animals to be administered orally/intravenously (with oral dosage of 10 mg/kg or intravenous dosage of 2 mg/kg).
(§3) Experimental scheme: The oral administration group comprised 3 mice per group (Solvent: 10% Hβ-CD-pH7.4), and the intravenous group comprised 3 mice per group. […] The blood concentration in the plasma of mice was determined using the LC/MS/MS method after the oral or intravenous administration, respectively, and the collected data were calculated using the AB Sciex QTRAP 6500 software.

[1] = system: SW48 (MSI-H) colorectal cancer tumor cells; assay: In vivo efficacy, SW48 xenograft in nude mice; design: species or system BALB/c nude mice; settings: QD, oral; for TGI: 21 days; for Tumor Volume D 1: day 1; for Tumor volume D 21: day 21
Protocol: In vivo efficacy experiment in BALB/C nude mice. Details are as follows:
SW48 (MSI-H) colorectal cancer tumor cells were cultured (in an L15 medium with 10% fetal bovine serum), and inoculated into 6-8 week old female BALB/c nude mice (with body weight of about 20 g). All the mice were inoculated subcutaneously. The mice were raised in an SPF-grade experimental environment, and all the mice were free to take commercially certified standard diets. When the tumors grew to an average volume of about 160 mm^3 in mice, the test compound was orally administered daily. […] The tumor volume was measured with a two-dimensional caliper three times a week, and the animals were weighed every day. […] The volume calculation formula is: V=1/2a*b^2, where a represents the long diameter of the tumor and b represents the short diameter of the tumor.

[2] = female, CD1, mouse, in vivo
Protocol: as §1, §2, §3

[3] = system: HT-29 colorectal cancer cells; assay: 2D antiproliferation on MSS HT-29 cells, CTG, 5 days; format: cell-based; settings: Homo sapiens, 120 h, HT-29 MSS
Summary of the method: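 HT-29 (MSS) colorectal cells in McCoy's 5A with 10% FBS were exposed to a range of compound concentrations for 5 days at 37° C, 5% CO2. Viability was read as CellTiter-Glo luminescence after 30 min, which reflects ATP content.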

WRN enzyme = molecular target: T1, WRN enzyme (Homo sapiens, UniProt Q14191); assay: WRN helicase hydrolysis (unwinding) of double-stranded DNA, fluorescence assay; format: biochemical; settings: 30 min pre-incubation, 60 min reaction
T1 construct: 10 μL (2×) of WRN enzyme solution was added
T1 sequence (Q14191 whole entry): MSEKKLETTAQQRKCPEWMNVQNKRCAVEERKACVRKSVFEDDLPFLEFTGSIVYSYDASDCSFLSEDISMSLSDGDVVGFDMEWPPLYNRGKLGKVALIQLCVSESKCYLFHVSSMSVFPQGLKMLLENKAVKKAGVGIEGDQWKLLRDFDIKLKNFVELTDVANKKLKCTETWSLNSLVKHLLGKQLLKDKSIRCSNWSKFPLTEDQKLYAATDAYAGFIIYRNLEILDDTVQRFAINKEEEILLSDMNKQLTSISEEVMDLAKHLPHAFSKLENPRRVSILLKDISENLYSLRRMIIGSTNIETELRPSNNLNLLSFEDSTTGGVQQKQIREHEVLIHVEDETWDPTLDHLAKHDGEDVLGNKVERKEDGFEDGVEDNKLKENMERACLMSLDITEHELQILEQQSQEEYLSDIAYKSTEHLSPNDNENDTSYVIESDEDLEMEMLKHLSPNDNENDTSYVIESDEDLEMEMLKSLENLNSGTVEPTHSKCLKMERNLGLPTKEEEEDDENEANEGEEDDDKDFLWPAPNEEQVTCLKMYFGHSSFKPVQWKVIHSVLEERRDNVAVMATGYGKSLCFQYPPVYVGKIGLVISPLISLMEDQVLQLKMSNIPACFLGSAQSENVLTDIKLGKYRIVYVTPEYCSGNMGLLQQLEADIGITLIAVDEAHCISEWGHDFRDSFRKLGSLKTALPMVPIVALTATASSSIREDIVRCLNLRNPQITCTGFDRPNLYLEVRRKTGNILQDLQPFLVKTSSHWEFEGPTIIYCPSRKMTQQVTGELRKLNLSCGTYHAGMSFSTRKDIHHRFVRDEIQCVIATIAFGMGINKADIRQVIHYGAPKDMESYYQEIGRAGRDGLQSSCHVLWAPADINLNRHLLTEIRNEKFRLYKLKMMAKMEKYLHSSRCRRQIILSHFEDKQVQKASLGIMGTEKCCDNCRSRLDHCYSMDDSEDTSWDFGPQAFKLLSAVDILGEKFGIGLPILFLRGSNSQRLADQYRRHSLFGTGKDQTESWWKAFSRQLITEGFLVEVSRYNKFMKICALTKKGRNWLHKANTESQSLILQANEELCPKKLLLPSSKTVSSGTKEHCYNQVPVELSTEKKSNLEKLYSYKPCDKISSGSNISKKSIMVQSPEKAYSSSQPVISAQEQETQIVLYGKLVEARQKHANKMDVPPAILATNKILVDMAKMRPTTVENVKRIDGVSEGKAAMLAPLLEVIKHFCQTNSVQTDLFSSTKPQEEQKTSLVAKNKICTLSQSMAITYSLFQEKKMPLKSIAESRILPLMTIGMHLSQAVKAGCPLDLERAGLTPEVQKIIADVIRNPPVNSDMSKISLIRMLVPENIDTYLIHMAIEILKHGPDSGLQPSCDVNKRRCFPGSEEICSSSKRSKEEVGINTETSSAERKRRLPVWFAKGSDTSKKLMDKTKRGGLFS
Protocol: • The molecules of the present disclosure were tested for their activities on the WRN helicase hydrolysis of double-stranded DNA (Table 1).
A working solution to be tested and a buffer were prepared. The compound to be tested was dissolved in DMSO and subjected to 4× dilution (with 10 μM final concentration as the starting concentration). 0.2 μL of the solution of the compound to be tested was added to the 384-well plate and 10 μL (2×) of WRN enzyme solution was added. The solution was incubated in the dark for 30 minutes. Then, 10 μL of a substrate detection solution containing double-stranded DNA was added to initiate the reaction (the DNA has a length of 19 bp, and labeled with TAMRA and BHQ2 at 3′ and 5′-ends, respectively). The solution was incubated at room temperature for 60 minutes. The inhibitory activities (IC50) against WRN enzyme were calculated based on the change of Ex530/Em590 in the blank group (DMSO) and the compound group.

[4] = system: SW48 colorectal cancer cells; assay: 2D antiproliferation on MSI-H SW48 cells, CTG, 5 days; format: cell-based; settings: Homo sapiens, 120 h; SW48 MSI-H, 5 days
Summary of the method: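 MSI-H SW48 colorectal cells in RPMI1640 with 10% FBS exposed to graded compound concentrations for 5 days at 37 °C, 5% CO2. Viability read as CellTiter-Glo ATP luminescence after 30 min.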

[5] = Caco-2 membrane permeability assay; format: in vitro ADME; settings: human
Protocol: Membrane Permeability Evaluation Experiments: Caco-2 Assays
The molecules of the present disclosure were evaluated for their membrane permeability. […] Data would be used for apparent permeability (Papp).
wherein VA is the volume of the receptor pore (unit: mL), Area is the surface area of the membrane (0.143 cm^2 for Transwell-96 well permeable scaffolds), and time is the total transport time (unit: seconds).

[6] = Caco-2, apical pH 6.5, basolateral pH 7.4

Row | Compound | AUC(0-t) (in vivo; iv, 2 mg/kg) [ng·h/mL] | C0 (in vivo; iv, 2 mg/kg) [ng/mL] | clearance (in vivo; iv, 2 mg/kg) [mL/min/kg] | half-life (in vivo; iv, 2 mg/kg) [h] | AUC(0-t) (in vivo; po, 10 mg/kg) [ng·h/mL] | Cmax (in vivo; po, 10 mg/kg) [ng/mL] | Tmax (in vivo; po, 10 mg/kg) [h] | half-life (in vivo; po, 10 mg/kg) [h] | F [2] [%] | IC50 [4] [nM] | other results
1 | CCc1c(N2CCN(C(=O)c3ncccc3O)CC2)c(=O)n2nc(-c3cccnc3)nc2n1CC(=O)Nc1ccc(C(F)(F)F)cc1C [A1, reference compound] | 1190 | 2520 | 28.1 | 1.3 | 801 | 584 | 0.5 | 1.4 | 14 | – | TGI ([1]; 20 mg/kg): 16%; Tumor Volume D 1 ([1]; 20 mg/kg): 162 mm^3; Tumor volume D 21 ([1]; 20 mg/kg): 1672 mm^3; TGI ([1]; 50 mg/kg): 50%; Tumor Volume D 1 ([1]; 50 mg/kg): 160 mm^3; Tumor volume D 21 ([1]; 50 mg/kg): 1065 mm^3
2 | CCc1c(N2CCN(C(=O)c3ncnc(C)c3O)CC2)c(=O)n2nc(-c3cc4c(s3)COC4)nc2n1CC(=O)Nc1ccc(Br)c2ccoc12 [P59] | 2970 | 5260 | 11.2 | 0.9 | 6070 | 2850 | 0.25 | 1.3 | 41 | 39 | IC50 [3]: > 10000 nM; IC50 (WRN enzyme): 1.5 nM
3 | CCc1c(N2CCN(C(=O)c3ncnc(C)c3O)CC2)c(=O)n2nc(-c3cc4c(s3)COC4)nc2n1CC(=O)Nc1ccc(C(F)(F)F)c(C)c1C [P62] | – | – | – | – | – | – | – | – | – | 37 | efflux ratio ([5]; Caco-2): 11.6; Papp A→B [5, 6]: 1.54 ×10⁻⁶ cm/s; Papp B→A [5, 6]: 17.9 ×10⁻⁶ cm/s
